Laboratory results reported in patent US20060257480A1, “Pharmaceutical formulations of amyloid inhibiting compounds” (priority 2005, published 2006).

Columns and labels:
[1] = Example 10: 3-APS concentration in cerebrospinal fluid (CSF) of AD patients; format: in vivo, human; conditions: additional tests, treated patients
Excerpt: (Patients having a CSF level below the lower limit of quantitation of the assay are considered as zero.) CSF concentrations of 3-APS on Day 2 of Week 12 after twice daily oral administration for 12 weeks are as follows: […]

[2] = Example 9 Part I: single oral dose pharmacokinetics of NC-758-1 (Table 5 tablet) in healthy elderly; format: in vivo; conditions: both sexes, human, plasma, elderly male and female, fasted; for AUC(0-inf) / AUC(0-t) / Cmax: mean; for Tmax: median
Excerpt: (§1) In the following examples and elsewhere herein, terms are as defined below. The pharmacokinetic parameters were derived by non-compartmental analysis using WinNonlin° (Pharsight Corporation, Mountain View, Calif.) or SAS® for Windows® (SAS Institute Inc., Cary, N.C.).
Part I—The pharmacokinetic profile and the effect of food on single oral doses of 3-APS free acid (modified-release enteric-coated tablet as described in Table 5 above, hereinafter “NC-758-1“) in healthy male and female elderly (≧55 years) volunteers. For doses at multiples of 50 mg, multiple 50 mg tables are administered. The test is an open label, three-period crossover study to assess the pharmacokinetic profile of 3 single oral doses of NC-758-1 in healthy elderly (≧55 years) male and female subjects. The blood samples are collected during 24 h following dosing. Plasma concentrations of 3-APS are determined using a validated LC-MS/MS method.

Aβ42 = biological target: T1, Aβ42 (Homo sapiens, UniProt P05067); experiment: Example 11 additional tests: CSF Aβ42 levels and Aβ42/Aβ40 ratio in treated patients; format: in vivo
T1 construct: from tissue; host or cells: cerebrospinal fluid of AD patients treated with 3-APS

[3] = Example 8 Part I: multiple rising oral dose pharmacokinetics of NC-758; format: in vivo; conditions: human, plasma, fasted; for AUC(0-inf) / AUC(0-t) / Cmax: mean; for AUC(0-t): read-out: AUC0-12h; for Tmax: median
Method: as §1
For doses at multiples of 100 mg, multiple 100 mg tables are administered. […] In Part I, 3-APS is administered as a single dose on Days 1 and 12 and on Days 2-11, twice daily at 12 hour intervals.

[4] = dog, in vivo
Method: (§2) Furthermore, the non-hygroscopic nature of the acid form makes it desirable as active pharmaceutical ingredient. To further protect against any possible gastrointestinal intolerance that could result from the acid form, the tablets are enteric-coated and a modified-release agent is added to control any rapid release of the drug in the stomach and the intestine, respectively.

[5] = Example 13: single 150 mg (3 × 50 mg) oral dose pharmacokinetics in healthy elderly male volunteers, fasting and fed; format: in vivo, human; conditions: 150 mg (3 × 50 mg) single oral, Fasting Conditions, mean
Method: as §1
A single dose study of 3-APS Modified-Release Coated Tablets (of Table 5 above) in healthy elderly male volunteers following a 150 mg oral dose administration under fed conditions is conducted. For the 150 mg dose, three 50 mg tables are administered.

[6] = Example 7 Part I: single rising oral dose pharmacokinetics of NC-758 (Table 3 tablet), plasma 3-APS by LC-MS/MS; format: in vivo, human; conditions: for AUC(0-inf) / Tmax / Cmax / AUC(0-t): human, plasma, fasted; for AUC(0-inf) / Cmax / AUC(0-t): mean; for Tmax: median; for Cmax / AUC(0-t): male, po; for AUC(0-t): read-out: AUC0-Tlast
Excerpt: as §1
Part I—The pharmacokinetic profile and the effect of food on single rising oral doses of 3-APS free acid (modified-release enteric-coated tablet, as described in Table 3 above, hereinafter “NC-758”) in healthy male young (18-45 years) volunteers is determined. For doses at multiples of 100 mg, multiple 100 mg tables are administered. The pharmacokinetics of a single oral dose of NC-758 is also determined in a group of healthy male elderly (≧55 years old) volunteers. The test is a randomized, double-blind, placebo-controlled study to assess the pharmacokinetic profile of 4 single rising oral doses of NC-758 in healthy young (18-45 years) male subjects. Blood samples are collected during 24 h following dosing. Plasma concentrations of 3-APS are determined using a validated LC-MS/MS method.

[7] = Example 9 Part II: food effect on single 100 mg oral dose pharmacokinetics in elderly (Table 5 formulation); format: in vivo; conditions: both sexes, human, plasma; 100 mg single oral, elderly male and female, Fasting Arm; median
Method: as §1
Following single oral dosing of 100 mg 3-APS (modified-release coated formulation modified-release enteric-coated tablet as described in Table 5 above) to elderly (55 years or older) male and female subjects under fasted and fed (high fat) conditions, maximum plasma concentrations of 3-APS are attained at 5 and 10.5 h post-dose under fasted and fed conditions, respectively (Table 12A below and FIG. 5 showing the Mean Plasma Concentration-Time Profiles of 3-APS under Fasted and Fed Conditions following Single Oral Administration of 100 mg to Elderly Male and Female Subjects).

[8] = Example 7 Part II: food effect on single 200 mg oral dose pharmacokinetics (Table 3 formulation); format: in vivo, human; conditions: 200 mg single oral, young male
Method: as §1
Following single oral dosing of 200 mg 3-APS (modified-release coated formulation as described in Table 3 above) to young male subjects (aged between 18 and 45 years) under fasted and fed (high fat) conditions, maximum plasma concentrations of 3-APS are attained at 5 and 13.5 h post-dose under fasted and fed conditions, respectively (Table 9A).

[9] = Gastrointestinal tolerability of sodium salt capsules (certain studies); format: in vivo; conditions: solid dosage form (capsules)
Method: as §2

[10] = both sexes, 200 mg, 200 mg BID, Day 1, elderly (≧55 years) male and female
[11] = both sexes, 200 mg, 200 mg BID, Day 12, elderly (≧55 years) male and female
[12] = male, 100 mg, 100 mg BID, Day 1, young (18-45 years) male
[13] = male, 100 mg, 100 mg BID, Day 12, young (18-45 years) male
[14] = male, 200 mg, 200 mg BID, Day 1, young (18-45 years) male
[15] = male, 200 mg, 200 mg BID, Day 12, young (18-45 years) male
[16] = 100 mg single oral, young (18-45 years) male
[17] = 200 mg single oral, young (18-45 years) male
[18] = 300 mg single oral, young (18-45 years) male
[19] = 100 mg, 100 mg single oral, young (18-45 years) male
[20] = 200 mg, 200 mg single oral, elderly (>55 years) male
[21] = 200 mg, 200 mg single oral, young (18-45 years) male
[22] = 300 mg, 300 mg single oral, young (18-45 years) male
[23] = 400 mg, 400 mg single oral, young (18-45 years) male

T1 sequence (P05067 672-713 limits assumed): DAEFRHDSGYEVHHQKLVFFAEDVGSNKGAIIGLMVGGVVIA

For `NCCCS(=O)(=O)O` [3-APS, 3-amino-1-propanesulfonic acid], the “crossing of the blood/brain barrier” value [1] was “crossed the blood/brain barrier”, the AUC(0-inf) ([2]; 50 mg single oral) was 1570 ng·h/mL and the AUC(0-t) ([2]; 50 mg single oral) was 1540 ng·h/mL. The Cmax ([2]; 50 mg single oral) was 469 ng/mL, the Tmax ([2]; 50 mg single oral) was 5 h and the AUC(0-inf) ([2]; 100 mg single oral) was 2870 ng·h/mL. For the same molecule, the AUC(0-t) ([2]; 100 mg single oral) was 3130 ng·h/mL, the Cmax ([2]; 100 mg single oral) was 745 ng/mL and the Tmax ([2]; 100 mg single oral) was 5 h. The AUC(0-inf) ([2]; 150 mg single oral) was 4500 ng·h/mL, the AUC(0-t) ([2]; 150 mg single oral) was 5300 ng·h/mL and the Tmax ([2]; 150 mg single oral) was 5 h. The “ratio of Aβ42/Aβ40” value (Aβ42; CSF, treated patients (FIGS. 2, 3 and 4)) was “reduced”, the “CSF Aβ42 levels” value (Aβ42; treated patients (FIG. 1)) was “reduced” and the AUC(0-inf) ([3]; both sexes, 200 mg BID, Day 1, elderly (≧55 years) male and female) was 5500 ng·h/mL. It also gave an AUC(0-t) ([3]; both sexes, 200 mg BID, Day 12, elderly (≧55 years) male and female) of 6290 ng·h/mL, a Cmax [3, 10] of 897 ng/mL and an AUC(0-t) [3, 10] of 5020 ng·h/mL. It also gave a Tmax [3, 10] of 6 h, a Cmax [3, 11] of 880 ng/mL and a Tmax [3, 11] of 5 h. It also gave an AUC(0-inf) ([3]; 100 mg BID, Day 1, young (18-45 years) male) of 1020 ng·h/mL, an AUC(0-inf) ([3]; 200 mg BID, Day 1, young (18-45 years) male) of 3210 ng·h/mL and a Cmax [3, 12] of 282 ng/mL. For the same molecule, the AUC(0-t) [3, 12] was 1330 ng·h/mL, the Tmax [3, 12] was 6 h and the Cmax [3, 13] was 256 ng/mL. It also gave an AUC(0-t) [3, 13] of 1430 ng·h/mL, a Tmax [3, 13] of 2.5 h and a Cmax [3, 14] of 517 ng/mL. The AUC(0-t) [3, 14] was 2860 ng·h/mL, the Tmax [3, 14] was 4 h and the Cmax [3, 15] was 581 ng/mL. For the same molecule, the AUC(0-t) [3, 15] was 4150 ng·h/mL, the Tmax [3, 15] was 4 h and the tolerability [4] was “better tolerated than the sodium salt form”. The AUC0-Tlast [5] was 3211 ng·h/mL, the “AUC∞” value [5] was 3284 ng·h/mL and the “AUC0-t greater in elderly subjects compared to young subjects” value ([6]; 200 mg dose, Tables 9 and 10) was “approximately 70%”. The “Cmax greater in elderly subjects compared to young subjects” value ([6]; 200 mg dose, Tables 9 and 10) was “approximately 70%”, the AUC(0-inf) [6, 16] was 1420 ng·h/mL and the Tmax [6, 16] was 5 h. For the same molecule, the AUC(0-inf) [6, 17] was 2490 ng·h/mL, the Tmax [6, 17] was 5 h and the AUC(0-inf) [6, 18] was 4460 ng·h/mL. For the same molecule, the Tmax [6, 18] was 5 h, the Tmax ([6]; 400 mg single oral, young (18-45 years) male) was 2 h and the Cmax [6, 19] was 410 ng/mL. The AUC(0-t) [6, 19] was 1390 ng·h/mL, the Cmax [6, 20] was 1090 ng/mL and the AUC(0-t) [6, 20] was 4880 ng·h/mL. The Cmax [6, 21] was 661 ng/mL, the AUC(0-t) [6, 21] was 2900 ng·h/mL and the Cmax [6, 22] was 904 ng/mL. The AUC(0-t) [6, 22] was 4000 ng·h/mL, the Cmax [6, 23] was 5370 ng/mL and the AUC(0-t) [6, 23] was 16000 ng·h/mL. The Tmax [7] was 5 h, the Cmax ([8]; Fed Arm (high fat), mean) was 631 ng/mL and the AUC(0-t) ([8]; human, plasma, Fasting Arm, mean, read-out: AUC0-Tlast) was 2200 ng·h/mL. For the same molecule, the Tmax ([8]; human, plasma, Fasting Arm, median) was 5 h and the AUC(0-inf) ([8]; human, plasma, Fed Arm (high fat), mean) was 4500 ng·h/mL.
For `NCCCS(=O)(=O)[O-].[Na+]` [3-amino-1-propanesulfonic acid, sodium salt], the “gastrointestinal symptoms (i.e. nausea and vomiting)” value [9] was “associated with gastrointestinal symptoms”.
